Assay results as given in US20260272908A1 (VANDERBILT UNIVERSITY, priority 2023, published 2026).

Experiments:
Meta4 organoids = test: FACS analysis of Meta4 organoids (7-AAD/annexin V; CD133/CD166); format: cell-based, mouse
p-STAT3^Y705 = test: Western blot for phospho-STAT3 in hPCO lines; format: cell-based, human
From the text: (§1) FIG. 7C-7D show Western blot analysis for p-STAT3 and p-ERK in three Pyr-resistant hPCO lines after Pyr treatment (FIG. 7C) and ratios of p-STAT3/t-STAT3 and p-ERK/t-ERK (FIG. 7D). FIG. 7E-7F show a Western blot for basal p-STAT3 and p-ERK levels in Pyr-sensitive and Pyr-resistant hPCO lines (FIG. 7E), and ratios of p-STAT3/t-STAT3 and p-ERK/t-ERK (FIG. 7F). FIG. 7G-7H show a Western blot for p-STAT3 and p-ERK in hPCO-3 after treatment of trametinib (Tra), Pyr, and their combinations (FIG. 7G), and ratios of p-STAT3/t-STAT3 and p-ERK/t-ERK (FIG. 7H). […] FIG. 7K-7L show phase-contrast images of Pyr-sensitive hPCO-2 treated with DMSO, Pyr, STAT3-IN-1, Sttatic, and Cryptotanshinone (CPT) for 6 days (FIG. 7K) and quantitation of organoid diameters before and after treatment (FIG. 7L). Mean±standard deviation. […]
(§2) Total proteins were extracted from organoids using radioimmunoprecipitation assay buffer (10 mmol/L Tris-HC, pH 7.2, 150 mmol/L NaCl, 5 mmol/L EDTA, 0.1% sodium dodecyl sulfate, 1.0% Triton X-100, 1% deoxycholate) with protease inhibitors. The protein concentration was measured The Bio-Rad Protein Assay (Bio-Rad Laboratories, Hercules, CA). […] After washes with TBS-T, chemiluminescence was detected with an Amersham Imager 680 instrument (GE Healthcare) after 1 mL of the SuperSignal West Femto Maximum Sensitivity Substrate (ThermoFisher) was applied to the membranes.

Mist1-Kras mice [1] = test: Pyrvinium treatment of Mist1-Kras mice (metaplasia progression to dysplasia, gastric corpus histology and immunostaining); format: in vivo, mouse; conditions: pyrvinium 2 weeks, qRT-PCR
[2] = tested on: human pre-cancerous organoid (hPCO) lines; test: Human precancerous organoid (hPCO) growth and organoid death
Procedure: To establish human pre-cancer organoids (hPCO), fresh tissues were obtained from the gastric cancer patients who underwent curative gastrectomy at SNUH (IRB No. H-1806-166-954).
Meta3, Meta4, and hPCO organoids were cultured in Matrigel (ECM, Sigma) with Mouse or Human IntestiCult medium (StemCell Technology) supplemented with 1% of penicillin/streptomycin (Gibco) in 48-well plates and medium was replaced every 3 days. The organoids were split every 5-7 days before they formed budding structures.
Mouse or human organoids were split and cultured in the Mouse or Human IntestiCult media for 1-2 days until they formed three-dimensional (3D) spherical structures, then the media was switched to media containing either DMSO vehicle or a certain concentration of each drug and cultured for 3 days. The EVOS M7000 inverted microscope were used to obtain phase contrast images of organoids. All experiments were repeated at least three times.
The number and diameters of mouse and human organoids treated with drugs were manually counted and measured at day 0 and 3 or 6 after treatment from four entire well images of each condition at 4× magnification. For counting live or dead cells, organoids were stained with Calcein AM for live cells and EthD-1 for dead cells 3 days after treatment and the number of EthD-1 positive organoids were manually counted from images taken from three wells of each condition at 4× magnification. All experiments were performed at least in triplicate. The mean values from each condition were compared by Student's paired or unpaired t-test using Graphpad Prism. *P<0.05, **P<0.01, ***P<0.001, ****P<0.0001.

p-ERK = test: Western blot for phospho-ERK in hPCO lines; format: cell-based, human
From the text: as §1, §2

Mist1-Kras mice [3] = test: Pyrvinium treatment of Mist1-Kras mice (metaplasia progression to dysplasia, gastric corpus histology and immunostaining); format: in vivo, mouse
Procedure: FIG. 5B schematically illustrates the H&E (top) and immunostaining for UEA1 (middle) and Ki-67 (bottom) in the wild type mice treated with Pyr for 2 weeks and Mist1-Kras mice treated with DMSO or Pyr for 1 or 2 weeks. FIG. 5C schematically illustrates the quantitation of Ki-67-positive cells per 20× field. […] Mean±standard deviation. Unpaired t-test or one-way ANOVA with Tukey's multiple comparisons. ns, not significant. *P<0.05. **P<0.01. ***P<0.001. Scale bar=100 μM.
To prepare formaldehyde-fixed paraffin-embedded (FFPE) organoids/spheres, Matrigel domes containing organoids/spheres were fixed in 4% PFA at room temperature for 30 min. The fixed organoids were embedded in HistoGel™ (Thermo Fisher Scientific) followed by a wash in PBS for 1 min and processed according to a standard histological protocol for paraffin embedding. Human tissues were fixed in 10% neutral buffered formalin (NBF) for 1 week at room temperature and mouse tumor tissues were fixed in 4% paraformaldehyde (PFA) solution overnight at 4° C. The fixed tissues were transferred into 70% ethanol and processed according to a standard histological protocol for subsequent paraffin embedding. Four to five micrometers of organoid/sphere or tissue paraffin sections were de-paraffinized in Histoclear solution (Electron Microscopy Services) and rehydrated through a series of ethanol (100%, 95% and 75%).
Antigen retrieval was performed using a pH 6 or pH 9 target retrieval solution (Dako) in a pressure cooker for 15 min and cooled for 1 hour. For immunofluorescence staining, each section was incubated in serum-free protein block solution (Dako) at room temperature for 1.5 hours. Primary antibodies were diluted in Antibody Diluent with background reducing components (Dako) and applied to sections, then incubated overnight at 4° C. Slides were washed in PBS for 5 min three times and secondary antibodies diluted in Antibody Diluent (Dako) were applied to each section. Sections were incubated at room temperature for 1 hour and PBS with Hoechst (1:5000) was applied to the sections for 5 min for nuclei counterstaining. Slides were washed in PBS for 5 min three times, mounted with ProLong™ Gold Antifade Mountant (ThermoFisher) and cover slipped. All fluorescence images were acquired using a Zeiss Axio Imager M2 microscope with Axiovision digital imaging system or scanned using the Aperio Versa 200 Fluorescent Slide Scanner (Leica) at the Vanderbilt Digital Histology Shared Resource. Preparation and overlay of fluorescence images were performed using Adobe Photoshop.
For immunohistochemical staining, sections were blocked in Peroxidase Blocking Solution (Vector Laboratories) at room temperature for 20 min followed by serum-free protein block solution (Dako) at room temperature for 1.5 hours. Primary antibodies were diluted in Antibody Diluent with background reducing components (Dako) and applied to sections, then incubated overnight at 4° C. Horseradish-peroxidase (HRP)-conjugated secondary antibodies were applied to sections and incubated for 15 min at room temperature followed by three washes in PBS for 5 min each. ImmPRESS polymer detection reagent and ImmPACT DAB substrate kits (Vector Laboratories) were used for antibody detection. Images were scanned on a SCN400 slide scanner (Leica) at 20× magnification.
One or two weeks after either DMSO or pyrvinium treatment, gastric mucosa in each group of mice was examined.

[4] = three pyrvinium-resistant hPCO lines
[5] = three pyrvinium-sensitive hPCO lines
[6] = Mist1-Kras mice 3 months after tamoxifen, pyrvinium 1 or 2 weeks
[7] = Mist1-Kras mice, pyrvinium 2 weeks

Cc1cc(/C=C/c2ccc3cc(N(C)C)ccc3[n+]2C)c(C)n1-c1ccccc1 [pyrvinium]
CD133^+CD166^+ DSCs (FACS) (Meta4 organoids; pyrvinium-treated): significant decrease | 7-AAD and Annexin V expression (Meta4 organoids; pyrvinium-treated cells): increase | p-STAT3^Y705 levels (p-STAT3^Y705; [4]): no significant differences | p-STAT3^Y705 levels (p-STAT3^Y705; [5]): decreased | expression of myeloid-derived suppressor cell (MDSC)-related markers (Mist1-Kras mice [1]): tended to increase, although the changes were not significant | growth of metaplastic cells in hPCO lines ([2]; hPCO with metaplastic features): growth arrest | number of hPCO lines classified pyrvinium-moderate ([2]; of twenty hPCO lines, 6 days): six | number of hPCO lines classified pyrvinium-resistant ([2]; of twenty hPCO lines, 6 days): nine | number of hPCO lines classified pyrvinium-sensitive ([2]; of twenty hPCO lines, 6 days): Five | p-ERK levels (p-ERK; [4]): no significant differences | p-ERK levels (p-ERK; [5]): decreased | acid-secreting parietal cells in corpus mucosa (Mist1-Kras mice [3]; [6]): gradually repopulated the corpus mucosa | number of hyperplastic foveolar glands with UEA1 and Ki-67 positive proliferating cells (Mist1-Kras mice [3]; [6]): significantly decreased | CD4^+ T cell population (Mist1-Kras mice [3]; [7]): dramatic decrease | CD8^+ T cells (Mist1-Kras mice [3]; [7]): did not show a significant difference | CD19^+ B cells (Mist1-Kras mice [3]; [7]): did not show a significant difference | CD163-positive M2-macrophages (Mist1-Kras mice [3]; [7]): significantly decreased | NK cells (Mist1-Kras mice [3]; [7]): significantly decreased | Pim-1 (immunostaining, gastric corpus) (Mist1-Kras mice [3]; [7]): downregulation | number of dysplastic glands (Mist1-Kras mice [3]; [7]): significant decrease | p-STAT3 (immunostaining, gastric corpus) (Mist1-Kras mice [3]; [7]): downregulation | total number of CD3^+ T cells (Mist1-Kras mice [3]; [7]): decreased
